Columns and labels:
Assay in all cases: Bliss excess, mean over the matrix (fraction); higher = more synergy
[1] = system: CCRF-CEM (T-Lymphoblastic Leukemia)
Summary of the method: (§1)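 Cell lines in DMEM/F12 or RPMI with 10% FBS were plated in 1536-well plates, held 24 hours at 37°C, 5% CO2, then given two-drug dose matrices for 72 hours (DMSO typically 0.2%). Viability was read by CellTiter-Glo 2.0 luminescence and scaled as inhibition from 0 (vehicle wells) to 1 (blank wells). Combination Emax is the second-highest inhibition in the matrix; Bliss excess is observed combination effect minus expected EA + EB − EA·EB, EA and EB being single-agent effects.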

[2] = system: Calu-3 (Lung Adenocarcinoma)
Summary of the method: as §1

[3] = system: DoTc2-4510 (Cervical Carcinoma)
Summary of the method: as §1

[4] = system: LB831-BLC (Bladder Carcinoma)
Summary of the method: as §1

NB10 (Neuroblastoma) = system: NB10 (Neuroblastoma)
Summary of the method: as §1

[5] = system: NCI-H82 (Small Cell Lung Carcinoma)
Summary of the method: as §1

[6] = system: Ramos-2G6-4C10 (Burkitt's Lymphoma)
Summary of the method: as §1

[7] = system: TE-15 (Esophageal Squamous Cell Carcinoma)
Summary of the method: as §1

Compound | Bliss excess [1] | Bliss excess [2] | Bliss excess [3] | Bliss excess [4] | Bliss excess (NB10 (Neuroblastoma)) | Bliss excess [5] | Bliss excess [6] | Bliss excess [7]
C=CCn1c(=O)c2cnc(Nc3ccc(N4CCN(C)CC4)cc3)nc2n1-c1cccc(C(C)(C)O)n1 [AZD1775] + CCc1c2c(nc3ccc(O)cc13)-c1cc3c(c(=O)n1C2)COC(=O)[C@]3(O)CC [SN-38] (first compound max 1 µM, partner max 0.3 µM) | -0.0423 | -0.0341 | -0.0173 | 0.0518 | -0.141 | -0.0569 | 0.0943 | -0.0211
C=CCn1c(=O)c2cnc(Nc3ccc(N4CCN(C)CC4)cc3)nc2n1-c1cccc(C(C)(C)O)n1 [AZD1775] + Nc1ccn([C@@H]2O[C@H](CO)[C@@H](O)C2(F)F)c(=O)n1 [Gemcitabine] (first compound max 1 µM, partner max 0.3 µM) | 0.0584 | -0.013 | 0.033 | 0.0909 | 0.0509 | -0.0404 | 0.186 | 0.042
CN(CCO)CC[C@H](CSc1ccccc1)Nc1ccc(S(=O)(=O)NC(=O)c2ccc(N3CCC([C@@H](O)c4ccccc4-c4ccc(Cl)cc4)CC3)cc2)cc1S(=O)(=O)C(F)(F)F [AZD4320] + CC(=O)O[C@H]1C(=O)[C@@]2(C)[C@H]([C@H](OC(=O)c3ccccc3)[C@]3(O)C[C@H](OC(=O)[C@H](O)[C@@H](NC(=O)c4ccccc4)c4ccccc4)C(C)=C1C3(C)C)[C@]1(OC(C)=O)CO[C@@H]1C[C@@H]2O [Paclitaxel] (first compound max 1 µM, 7x7, partner max 3 µM) | -0.0072 | -0.0045 | 0.111 | 0.104 | 0.0462 | -0.0552 | -0.151 | 0.0118
CN(CCO)CC[C@H](CSc1ccccc1)Nc1ccc(S(=O)(=O)NC(=O)c2ccc(N3CCC([C@@H](O)c4ccccc4-c4ccc(Cl)cc4)CC3)cc2)cc1S(=O)(=O)C(F)(F)F [AZD4320] + CS(=O)(=O)CCNCc1ccc(-c2ccc3ncnc(Nc4ccc(OCc5cccc(F)c5)c(Cl)c4)c3c2)o1 [Lapatinib] (first compound max 1 µM, 7x7, partner max 10 µM) | 0.0305 | 0.0224 | 0.051 | 0.0245 | -0.0204 | 0.0747 | 0.117 | -0.0004
CN(CCO)CC[C@H](CSc1ccccc1)Nc1ccc(S(=O)(=O)NC(=O)c2ccc(N3CCC([C@@H](O)c4ccccc4-c4ccc(Cl)cc4)CC3)cc2)cc1S(=O)(=O)C(F)(F)F [AZD4320] + Nc1ccn([C@@H]2O[C@H](CO)[C@@H](O)C2(F)F)c(=O)n1 [Gemcitabine] (first compound max 1 µM, 7x7, partner max 0.3 µM) | 0.0061 | 0.0076 | 0.0764 | -0.0192 | -0.0457 | 0.016 | -0.0368 | 0.0164
Cc1c2c(nn1C)CSCc1cc(n(C)n1)CSc1cc(c3ccccc3c1)OCCCc1c(C(=O)O)n(C)c3c-2c(Cl)ccc13 [AZD5991] + CC(=O)O[C@H]1C(=O)[C@@]2(C)[C@H]([C@H](OC(=O)c3ccccc3)[C@]3(O)C[C@H](OC(=O)[C@H](O)[C@@H](NC(=O)c4ccccc4)c4ccccc4)C(C)=C1C3(C)C)[C@]1(OC(C)=O)CO[C@@H]1C[C@@H]2O [Paclitaxel] (first compound max 1 µM, 7x7, partner max 3 µM) | -0.0339 | -0.0064 | -0.0508 | 0.0261 | 0.0264 | -0.0392 | -0.104 | 0.0224
Cc1c2c(nn1C)CSCc1cc(n(C)n1)CSc1cc(c3ccccc3c1)OCCCc1c(C(=O)O)n(C)c3c-2c(Cl)ccc13 [AZD5991] + CS(=O)(=O)CCNCc1ccc(-c2ccc3ncnc(Nc4ccc(OCc5cccc(F)c5)c(Cl)c4)c3c2)o1 [Lapatinib] (first compound max 1 µM, 7x7, partner max 10 µM) | -0.0676 | 0.0244 | -0.0004 | -0.0215 | -0.0197 | -0.0161 | 0.0153 | -0.012
Cc1c2c(nn1C)CSCc1cc(n(C)n1)CSc1cc(c3ccccc3c1)OCCCc1c(C(=O)O)n(C)c3c-2c(Cl)ccc13 [AZD5991] + Nc1ccn([C@@H]2O[C@H](CO)[C@@H](O)C2(F)F)c(=O)n1 [Gemcitabine] (first compound max 1 µM, 7x7, partner max 0.3 µM) | -0.0164 | -0.0191 | -0.0282 | -0.0443 | -0.0006 | 0.003 | 0.0162 | 0
C[C@@H]1COCCN1c1cc(C2([S@](C)(=N)=O)CC2)nc(-c2ccnc3[nH]ccc23)n1 [AZD6738] + C1CC(C1)(C(=O)[O-])C(=O)[O-].N.N.[Pt+2] [Carboplatin] (first compound max 10 µM, 7x7, partner max 10 µM) | -0.0161 | -0.0397 | -0.0562 | -0.051 | -0.0562 | -0.117 | -0.0421 | -0.0208
C[C@@H]1COCCN1c1cc(C2([S@](C)(=N)=O)CC2)nc(-c2ccnc3[nH]ccc23)n1 [AZD6738] + Nc1ccn([C@@H]2O[C@H](CO)[C@@H](O)C2(F)F)c(=O)n1 [Gemcitabine] (first compound max 10 µM, 7x7, partner max 0.3 µM) | 0.0838 | 0.0685 | 0.118 | 0.113 | 0.0622 | -0.0333 | 0.15 | 0.0378
Cc1cc2ncnn2cc1Nc1ncc2c(n1)n(C1CCOCC1)c(=O)n2C [AZD7648] + COc1cc([C@@H]2c3cc4c(cc3[C@@H](O[C@@H]3O[C@@H]5CO[C@@H](C)O[C@H]5[C@H](O)[C@H]3O)[C@H]3COC(=O)[C@H]23)OCO4)cc(OC)c1O [Etoposide] (first compound max 10 µM, 7x7, partner max 10 µM) | 0.104 | 0.1 | 0.116 | 0.103 | 0.0154 | 0.0583 | 0.0563 | 0.0823
C[C@@H](Nc1cc(F)cc(F)c1)c1cc(C(=O)N(C)C)cc2c(=O)cc(N3CCOCC3)oc12 [AZD8186] + C1CN(CCC1(C(=O)N[C@@H](CCO)C2=CC=C(C=C2)Cl)N)C3=NC=NC4=C3C=CN4 [AZD5363] (first compound max 10 µM, 7x7, partner max 10 µM) | 0.007 | 0.0001 | -0.0017 | -0.0398 | -0.0398 | -0.0759 | -0.0898 | 0.0126
C[C@@H](Nc1cc(F)cc(F)c1)c1cc(C(=O)N(C)C)cc2c(=O)cc(N3CCOCC3)oc12 [AZD8186] + CC(=O)c1c(C)c2cnc(Nc3ccc(N4CCNCC4)cn3)nc2n(C2CCCC2)c1=O [Palbociclib] (first compound max 10 µM, 7x7, partner max 10 µM) | -0.0167 | -0.0036 | -0.0639 | -0.0414 | 0.0425 | -0.0338 | -0.0328 | -0.0044
C[C@@H](Oc1cc(-c2cnn(C3CCNCC3)c2)cnc1N)c1c(Cl)ccc(F)c1Cl [Crizotinib] + CC1=C(C(=CC=C1)Cl)NC(=O)C2=CN=C(S2)NC3=CC(=NC(=N3)C)N4CCN(CC4)CCO [Dasatinib] (first compound max 10 µM, 7x7, partner max 2 µM) | -0.0055 | -0.0158 | 0.0349 | 0.0269 | -0.0423 | -0.0642 | -0.0216 | -0.0403
C[C@@H](Oc1cc(-c2cnn(C3CCNCC3)c2)cnc1N)c1c(Cl)ccc(F)c1Cl [Crizotinib] + Cn1cnc2c(F)c(Nc3ccc(Br)cc3Cl)c(C(=O)NOCCO)cc21 [Selumetinib] (first compound max 10 µM, 7x7, partner max 10 µM) | -0.0682 | -0.0507 | -0.0514 | -0.049 | -0.0221 | -0.0702 | -0.0875 | -0.021
CS(=O)(=O)CCNCc1ccc(-c2ccc3ncnc(Nc4ccc(OCc5cccc(F)c5)c(Cl)c4)c3c2)o1 [Lapatinib] + Cn1cnc2c(F)c(Nc3ccc(Br)cc3Cl)c(C(=O)NOCCO)cc21 [Selumetinib] (first compound max 10 µM, 7x7, partner max 10 µM) | -0.0051 | -0.009 | -0.0459 | -0.0344 | 0.0376 | -0.0082 | 0.0139 | -0.0388
O=C(c1cc(Cc2n[nH]c(=O)c3ccccc23)ccc1F)N1CCN(C(=O)C2CC2)CC1 [Olaparib] + CC1(C)CCC(CN2CCN(c3ccc(C(=O)NS(=O)(=O)c4ccc(NCC5CCOCC5)c([N+](=O)[O-])c4)c(Oc4cnc5[nH]ccc5c4)c3)CC2)=C(c2ccc(Cl)cc2)C1 [Venetoclax] (first compound max 10 µM, 7x7, partner max 1 µM) | -0.0036 | -0.0406 | -0.0462 | -0.0271 | -0.0041 | -0.0197 | -0.0167 | -0.0098
O=C(c1cc(Cc2n[nH]c(=O)c3ccccc23)ccc1F)N1CCN(C(=O)C2CC2)CC1 [Olaparib] + CN(CC[C@H](CSC1=CC=CC=C1)NC2=C(C=C(C=C2)S(=O)(=O)NC(=O)C3=CC=C(C=C3)N4CCC(CC4)[C@H](C5=CC=CC=C5C6=CC=C(C=C6)Cl)O)S(=O)(=O)C(F)(F)F)CCO [AZD4320] (first compound max 10 µM, 7x7, partner max 1 µM) | 0.0247 | -0.027 | 0.03 | -0.0076 | -0.0471 | -0.0532 | -0.0184 | -0.0494
O=C(c1cc(Cc2n[nH]c(=O)c3ccccc23)ccc1F)N1CCN(C(=O)C2CC2)CC1 [Olaparib] + COc1nnc2ccc(N3CCC(c4ccc(OCCN5CCN(C)C(=O)[C@H]5C)cc4)CC3)nn12 [AZD5153] (first compound max 10 µM, 7x7, partner max 1 µM) | 0.0457 | -0.0339 | -0.0755 | -0.0889 | -0.0558 | -0.0326 | -0.0473 | -0.0671
O=C(c1cc(Cc2n[nH]c(=O)c3ccccc23)ccc1F)N1CCN(C(=O)C2CC2)CC1 [Olaparib] + Cc1c2c(nn1C)CSCc1cc(n(C)n1)CSc1cc(c3ccccc3c1)OCCCc1c(C(=O)O)n(C)c3c-2c(Cl)ccc13 [AZD5991] (first compound max 10 µM, 7x7, partner max 1 µM) | 0.0053 | -0.0453 | -0.0397 | -0.0371 | -0.0166 | -0.0755 | 0.0249 | -0.0392
N#Cc1cnc(Nc2cc(NC[C@H]3CNCCO3)c(C(F)(F)F)cn2)cn1 [SRA737] + C=CCn1c(=O)c2cnc(Nc3ccc(N4CCN(C)CC4)cc3)nc2n1-c1cccc(C(C)(C)O)n1 [AZD1775] (first compound max 10 µM, partner max 1 µM) | 0.0688 | 0.0228 | 0.074 | -0.0446 | 0.105 | 0.0115 | 0.119 | 0.0209
